From patent US20040171073A1, “Compounds for modulation of cholesterol transport” (Massachusetts Institute of Technology, priority 2002, published 2004)
Like-named read-outs stand apart in the source and are kept apart here.

Molecular target: T1, murine SR-BI (Mus musculus, UniProt Q61009)
T1 construct: expressed in transfected cells; host or cells: ldlA-7 (LDL receptor deficient Chinese hamster ovary cells)
T1 sequence (Q61009 1-509): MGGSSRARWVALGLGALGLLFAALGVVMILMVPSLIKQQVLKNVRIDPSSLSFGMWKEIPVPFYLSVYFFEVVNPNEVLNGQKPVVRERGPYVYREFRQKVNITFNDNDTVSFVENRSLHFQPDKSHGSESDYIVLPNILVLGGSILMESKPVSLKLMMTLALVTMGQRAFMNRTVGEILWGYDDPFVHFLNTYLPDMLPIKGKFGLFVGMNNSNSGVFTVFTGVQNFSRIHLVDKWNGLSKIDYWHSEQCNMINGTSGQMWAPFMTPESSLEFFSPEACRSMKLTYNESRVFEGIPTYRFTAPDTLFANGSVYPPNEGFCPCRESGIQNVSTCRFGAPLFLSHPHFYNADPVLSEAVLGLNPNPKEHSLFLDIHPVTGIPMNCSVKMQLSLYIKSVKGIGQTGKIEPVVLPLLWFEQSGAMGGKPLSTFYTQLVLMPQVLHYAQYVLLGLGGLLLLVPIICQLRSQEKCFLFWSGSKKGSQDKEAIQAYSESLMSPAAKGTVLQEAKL
Assay: Uptake of DiI from DiI-HDL by ldlA[mSR-BI] cells (high throughput screen and concentration dependence)
Format: cell-based

Row | SMILES | ENDOHDL Test 1 (Test 1) | ENDOHDL Test 2 (Test 2) | ENDOHDL Test 1 | ENDOHDL Test 2
1 | O=C(Cc1ccccc1)N/N=C/c1cccn1-c1ccc([N+](=O)[O-])cc1 [MIT 9952-123] | 0.59 | 0.64 |  | 
2 | O=C(COc1ccc(Cl)cc1)N/N=C/c1ccc(Cl)cc1 [MIT 9952-124] | 1.33 | 1.17 |  | 
3 | COc1ccc([N+](=O)[O-])cc1NC(=S)NC(NC(=O)c1ccccc1Br)C(Cl)(Cl)Cl (stereo not drawn) [MIT 9952-125] | 0.63 | 0.66 |  | 
4 | NC(=O)N/N=C/c1ccc(-c2ccc([N+](=O)[O-])cc2)o1 [MIT 9952-126] | 0.55 | 0.53 |  | 
5 | CCOC(C(=O)OC(C)CN(C)C)(c1ccccc1)c1ccccc1.Cl (stereo not drawn) [MIT 9952-128] | 1.23 | 1.36 |  | 
6 | CC1(C)C(C(=O)OCC(=O)c2ccc([N+](=O)[O-])cc2)CCC1C(=O)OCC(=O)c1ccc([N+](=O)[O-])cc1 (stereo not drawn) [MIT 9952-129] | 0.57 | 0.54 |  | 
7 | O=C(Nc1cc(Cl)ccc1Cl)c1cc(Br)ccc1NS(=O)(=O)c1ccc(Cl)c([N+](=O)[O-])c1 [MIT 9952-132] |  |  | 0.65 | 0.46
8 | COc1ccccc1C(=O)NC(Nc1cccc2ccccc12)C(Cl)(Cl)Cl (stereo not drawn) [MIT 9952-134] | 0.58 | 0.59 |  | 
9 | CN(C)c1ccc(C(Cl)(c2ccc(N(C)C)cc2)C2CN3CCC2CC3)cc1.Cl (stereo not drawn) [MIT 9952-137] | 1.32 | 1.25 |  | 
10 | O=[N+]([O-])c1ccc(Cl)c(/C=N/c2ccc(S(=O)(=O)c3ccc(/N=C/c4cc([N+](=O)[O-])ccc4Cl)cc3)cc2)c1 [MIT 9952-139] | 1.22 | 1.39 |  | 
11 | COc1ccc([N+](=O)[O-])cc1NC(=S)NC(NC(=O)C(c1ccccc1)c1ccccc1)C(Cl)(Cl)Cl (stereo not drawn) [MIT 9952-140] | 0.52 | 0.58 |  | 
12 | CCCCN1CCC(O)(c2ccccc2)C(C(=O)c2ccccc2)C1 (stereo not drawn) [MIT 9952-142] | 1.28 | 1.32 |  | 
13 | O=C(Oc1ccc2c(=O)c(Oc3ccccc3)coc2c1)C1CCCN1C(=O)OCc1ccccc1 (stereo not drawn) [MIT 9952-145] | 1.28 | 1.34 |  | 
14 | Br.CCOC(=O)c1c(CSC(=N)N)n(C)c2cc(Br)c(OC(C)=O)cc12 [MIT 9952-146] | 0.62 | 0.71 |  | 
15 | FC(F)(F)c1cccc(N2N=C(/C=C/c3ccccc3)CC2c2ccccc2)c1 (stereo not drawn) [MIT 9952-147] | 0.63 | 0.53 |  | 
16 | CN(C)/C=N/C(=O)CN1CCCC1=O [MIT 9952-148] | 1.44 | 1.32 |  | 
17 | COc1ccccc1NC(=O)Nc1ccc2ccccc2c1 [MIT 9952-149] | 0.62 | 0.6 |  | 

Row | SMILES | ENDOHDL Test 1 (Test 1) | ENDOHDL Test 2 (Test 2) | ENDOHDL Test 1 | ENDOHDL Test 2
18 | COC(=O)/C=C1/Nc2ccccc2OC1=O [MIT 9952-151] | 1.22 | 1.36 |  | 
19 | Cc1ccc(C(C)C)c(OCC(=O)Nc2cc([N+](=O)[O-])ccc2C)c1 [MIT 9952-153] | 0.6 | 0.57 |  | 
20 | Cc1ccc(C(C)C)cc1OCC(=O)N/N=C\c1cc([N+](=O)[O-])ccc1O [MIT 9952-154] | 0.47 | 0.45 |  | 
21 | CCN(CC)CC(=O)Nc1ccc2c(c1)Nc1ccccc1CC2.Cl [MIT 9952-158] | 0.42 | 0.39 |  | 
22 | COc1ccc(COCC(Cl)CN2CCCCC2)cc1OC.Cl (stereo not drawn) [MIT 9952-159] | 1.28 | 1.23 |  | 
23 | O=C(Nc1ccc(NC(=O)c2cccc([N+](=O)[O-])c2)c(Cl)c1)c1cccc([N+](=O)[O-])c1 [MIT 9952-162] | 0.55 | 0.4 |  | 
24 | CC1=C(C(=O)OCc2ccccc2)C(c2ccc(N(C)C)cc2)NC(=O)N1 (stereo not drawn) [MIT 9952-163] | 0.6 | 0.69 |  | 
25 | O=C(CC1=CCCCC1)Nc1cc([N+](=O)[O-])ccc1O [MIT 9952-167] | 1.32 | 1.18 |  | 
26 | C=CC[n+]1c(C)n(CC)c2cc(Cl)c(Cl)cc21.[I-] [MIT 9952-169] | 0.54 | 0.6 |  | 
27 | O=C1CC(S/C(=N\c2ccccc2)Nc2ccccc2)C(=O)N1c1cccc2ccccc12 (stereo not drawn) [MIT 9952-171] | 0.58 | 0.54 |  | 
28 | CCc1c2cccn2cc(C)[n+]1C.[I-] [MIT 9952-177] | 0.68 | 0.49 |  | 
29 | CCN(CC)CC(=O)Nc1ccc2c(c1)N(C(=O)c1ccccc1)c1ccccc1CC2.Cl [MIT 9952-178] | 0.4 | 0.38 |  | 
30 | C/C(CS(=O)(=O)c1ccc(C)cc1)=N/NC(N)=S [MIT 9952-181] | 0.6 | 0.54 |  | 
31 | COc1ccc(NC(=O)Oc2cc(C(C)(C)C)cc(C(C)(C)C)c2)cc1Cl [MIT 9952-182] | 0.71 | 0.41 |  | 
32 | O=C1Nc2ccc([N+](=O)[O-])cc2/C1=N/NC(=O)C1C2CCCCC21 (stereo not drawn) [MIT 9952-184] | 0.6 | 0.58 |  | 
33 | CCCCCCC1CCC/C1=N\NC(N)=S (stereo not drawn) [MIT 9952-185] | 0.53 | 0.46 |  | 
34 | O=C(CNS(=O)(=O)c1ccc([N+](=O)[O-])cc1)N/N=C/c1ccccc1 [MIT 9952-186] | 0.5 | 0.5 |  | 

Second part, led by results:

Row | ENDOHDL Test 1 (Test 1) | ENDOHDL Test 2 (Test 2) | SMILES | ENDOHDL Test 1 | ENDOHDL Test 2
35 | 0.62 | 0.6 | O=C(COc1ccc(Cl)cc1Cl)Nc1cccc(C(=O)O)c1 [MIT 9952-127] |  | 
36 | 0.62 | 0.65 | Cc1ccc2c(c1Br)/C(=N/NC(=O)Nc1ccccc1)C(=O)N2 [MIT 9952-130] |  | 
37 | 0.56 | 0.52 | COc1ccc(C(=O)NC(Nc2cccc3ccccc23)C(Cl)(Cl)Cl)cc1 (stereo not drawn) [MIT 9952-131] |  | 
38 | 0.54 | 0.63 | Cc1nn(-c2ccccc2)c(Cl)c1/N=N/c1ccccc1 [MIT 9952-138] |  | 
39 | 0.63 | 0.77 | CCN(CC)C(=O)N1CCN(c2ccc(Nc3ccnc4cc5ccccc5cc34)cc2)CC1 [MIT 9952-141] |  | 
40 | 0.66 | 0.65 | CCn1c(COC)c(-c2ccccc2)c2cc([N+](=O)[O-])ccc21 [MIT 9952-143] |  | 
41 | 0.56 | 0.56 | Nc1ccc(C(=O)Nc2ccc(C3Nc4ccc(SC(=O)c5ccc(N)cc5)c(Cl)c4S3)cc2)cc1 (stereo not drawn) [MIT 9952-144] |  | 
42 | 0.34 | 0.52 | Cc1cc(C(=O)N/N=C\c2c(O)ccc3ccccc23)[nH]n1 [MIT 9952-150] |  | 
43 | 0.51 | 0.43 | CN(C)CC(=O)Nc1ccc2c(c1)Nc1ccccc1CC2.Cl [MIT 9952-152] |  | 
44 | 0.69 | 0.47 | COc1c(Cl)cc(Cl)cc1C(=O)Nc1ccc(Br)cc1 [MIT 9952-155] |  | 
45 | 0.57 | 0.62 | Clc1ccc(-c2nc3ccc4ccccc4c3c3c2CCCC3)cc1 [MIT 9952-156] |  | 
46 | 1.26 | 1.21 | CC1(C)CC(=O)C(=Cc2c(Cl)ccc3ccccc23)C(=O)C1 [MIT 9952-157] |  | 
47 | 0.48 | 0.55 | Cc1nc(-c2ccc([N+](=O)[O-])cc2)c(C(=O)Nc2ccccc2)s1 [MIT 9952-160] |  | 
48 | 1.37 | 1.5 | O=C(Nc1ccc(Cl)cc1)c1ccc(N2C(=O)c3ccc(C(=O)Nc4ccc(Cl)cc4)cc3C2=O)cc1 [MIT 9952-161] |  | 
49 | 0.6 | 0.61 | C/C(=N\NC(=O)c1ccc(-c2ccccc2)cc1)c1cccc(N)c1 [MIT 9952-164] |  | 
50 | 0.57 | 0.6 | CCOC(=O)c1sc(-c2ccccc2)nc1-c1ccc([N+](=O)[O-])cc1 [MIT 9952-165] |  | 
51 | 0.56 | 0.67 | CC(F)(F)c1cccc(NC(=O)c2sc(-c3ccccc3)nc2-c2ccc([N+](=O)[O-])cc2)c1 [MIT 9952-166] |  | 
52 | 0.54 | 0.54 | O=C(N/N=C\c1ccccc1O)c1ccc(O)cc1 [MIT 9952-170] |  | 
53 | 0.55 | 0.56 | O=C(Nc1ccc(Oc2ccc(Cl)c3cccnc23)c(Cl)c1)c1ccc([N+](=O)[O-])cc1 [MIT 9952-172] |  | 
54 | 1.96 | 1.61 | Nc1nc(N)nc(-c2cccc(-c3nc(N)nc(N)n3)c2)n1 [MIT 9952-173] |  | 
55 | 0.6 | 0.62 | CCOCc1c(C)cc(C)c(/C=N/Nc2ccc([N+](=O)[O-])cc2)c1C [MIT 9952-174] |  | 
56 | 0.42 | 0.51 | NC(=S)Nc1ccc2c(c1)Nc1ccccc1CC2 [MIT 9952-175] |  | 
57 | 1.36 | 1.17 | Clc1ccc(/N=C/c2ccc3c(c2)OCO3)nc1 [MIT 9952-176] |  | 
58 | 0.54 | 0.54 | C=CCN1C(=O)[C@H]2Cc3c([nH]c4ccccc34)[C@@H](c3ccc4c(c3)OCO4)N2C1=S [MIT 9952-179] |  | 
59 | 0.43 | 0.45 | COC(=O)Cn1c2c(c3cc(C)ccc31)CCCC2NC(C)c1ccccc1 (stereo not drawn) [MIT 9952-180] |  | 
60 | 0.59 | 0.65 | Cc1[nH]c2ccccc2c1-c1c2ccccc2nc2ccccc12 [MIT 9952-183] |  | 
